Results on 84 molecules are retold here after PubChem BioAssay AID2305 (GlaxoSmithKline (GSK), 2010).

In general, IC50 refers to the point on the concentration scale where inhibition reaches its midpoint. Read a high IC50 as a need for much substance.

This experiment deals with P. falciparum 3D7 growth, pLDH absorbance. In words: blood-stage malaria parasite growth potency – strain 3D7, dose response (AID 2305).
In turn, `CCc1cc([C@H]2O[C@@H](n3cnc4c(NCC(c5ccccc5)c5ccccc5)nc(NCCNc5ccccn5)nc43)[C@H](O)[C@@H]2O)on1` registered an IC50 of 890 nM. In the case of `Cc1cc(F)ccc1Oc1nc(Nc2ccc(N3CCOCC3)c(F)c2)nc2c1S(=O)(=O)CCC2` it was 460 nM; in that of `O=C(Nc1cccc(-c2ccc(-c3nc4ccc(C(F)(F)F)cc4[nH]3)s2)c1)c1cccnc1`, 360 nM. Then `COc1ccc2nccc(NC(=O)C3(O)CCC(NCc4ncc5c(c4Cl)OCCO5)CC3)c2n1` (centres undefined), with 250 nM; and `Fc1ccc2nc(-c3ccc(-c4ccc(CNCCN5CCNCC5)cc4)cc3)[nH]c2c1`, with 850 nM. The molecule `C=CCc1ccc(C[C@H](NC(=O)OC(C)(C)C)C(=O)OC)cc1` showed an IC50 of 810 nM.

`CCOc1cc(C(=O)Nc2ccc3nc(N(CC)CC)cc(C)c3c2)cc(OCC)c1OCC` showed an IC50 of 700 nM. In the case of `c1ccc(-c2nc(NC3CCCCC3)cc(C3CC3)n2)nc1` it was 730 nM. `Cc1noc(C)c1-c1cccc(CNCc2ccc(-c3ccc(-c4nc5ccc(C(F)(F)F)cc5[nH]4)cc3)cc2)c1`: the concentration for half-maximal inhibition (IC50) came to 170 nM.

`CCc1nc2nc(C)cc(Nc3ccc4c(c3)OCCO4)n2n1`: the IC50 amounted to 1290 nM. With `COc1ccc(-c2ncnc(C(F)(F)F)c2-c2ccc(Cl)cc2)c(O)c1`, the IC50 was determined as 800 nM. Then `COc1ccc(-c2cc(C(=O)Nc3ccc4nc(-c5ccccc5)[nH]c4c3)[nH]n2)cc1`, with 700 nM. Take `O=C(Cc1ccc(NC(=O)c2ccc(O)c(-c3ccc(Cl)c(Cl)c3)c2)cc1)NCCN1CCOCC1`: the 50% inhibitory concentration (IC50) was 810 nM. In the case of `COCCNCc1ccc(-c2cccc(CNC3CCN(Cc4ccccc4)CC3)c2)cc1` it was 330 nM; in that of `Cc1cc(NC(=O)c2ccco2)ccc1OC1CCN(Cc2ccc(F)cc2)C1` (centres undefined), 640 nM.

In turn, `CC(C)Sc1nncc(-c2cnnc(SC(C)C)n2)n1` had an IC50 of 140 nM. In the case of `CNc1ccc(CNCc2ccc(-c3ccc(-c4nc5ccc(C(F)(F)F)cc5[nH]4)cc3)cc2)cc1` it was 170 nM; in that of `CN1CCN(c2nsc3ccc(-c4ccc(OCCN5CCCC5)cc4)cc23)CC1`, 830 nM; in that of `Cc1cnccc1/C=C/c1cccc(OCCN2CCc3ccc(S(C)(=O)=O)cc3CC2)c1`, 270 nM. Consider `CC[C@H]1CN(Cc2cccc(O)c2)CC[C@H]1CCCc1ccnc2ccc(O)cc12`, for which the IC50 amounted to 530 nM. In the case of `CN(C)Cc1cccc2[nH]c(-c3csc(Cc4cc(Cl)ccc4OCc4ccccc4)n3)nc12` it was 1120 nM; in that of `O=C(NC1CCCCC1)N(Cc1ccc(-c2ccc(CNC3CCCC3)cc2)cc1)C1CCN(Cc2ccccc2)CC1`, 780 nM.

Take `CCOc1cc(O)c(-c2nc(N)ncc2-c2ccc3c(c2)OCCO3)cc1CC`: the IC50 is 730 nM. In the case of `Cc1ccc(O)c(-c2cc(C(=O)Nc3ccc(S(=O)(=O)N4CCCCCC4)cc3)[nH]n2)c1` it was 710 nM; in that of `CNC(=O)/C=C/c1cc(NC(=O)Nc2ccnc3c(Br)cccc23)ccc1OC`, 860 nM. In turn, `COc1ccc(NC(=O)/C=C/c2ccccc2Cl)cc1OCCN1CCC(NCc2cccnc2)CC1` registered an IC50 of 760 nM. `CC(=O)C=C1CC(=O)N(C[C@@H](O)[C@H]2O[C@@H]3OC(C)(C)O[C@@H]3[C@H]2O)c2ccccc2N1`: the IC50 was 1260 nM. `O=C(Nc1ccc(Cl)cc1)c1ccc(CN2CCCN(CC3CCCCC3)CC2)cc1` displayed an IC50 of 220 nM. `OC(CNC1CCCCCCC1)c1ccc(Cl)c(Cl)c1` (centres undefined) returned an IC50 of 210 nM. On to `O=C(COc1ccc(Cl)cc1)N1CCC(CN2CCC(c3c[nH]c4ccccc34)CC2)CC1`, for which the IC50 was found to be 1100 nM. Molecule `Cc1cc(N(CCN2CCCCC2)CCN2CCCCC2)nc(Nc2ccc(Cl)cc2)n1` came in with an IC50 of 270 nM. `COc1cc(C(=O)NC2CCN(Cc3ccccc3)CC2)ccc1-c1nc2c(Cl)cc(C(F)(F)F)cc2[nH]1` displayed an IC50 of 670 nM.

`CCN1CCN(C(=O)NC(C(=O)N(C)Cc2ccc(-c3ccc(C(F)(F)F)cc3)cc2)c2cccs2)C(=O)C1=O` (centres undefined) returned an IC50 of 360 nM. Compared with the last molecule, the IC50 is about 1.9-fold lower. Take `O=C(Nc1cccc(CN2CCCN(Cc3ccccc3)CC2)c1)c1ccc(-c2ccccc2)cc1`: the half-maximal inhibitory concentration (IC50) turned out to be 1300 nM. For `CCN(CC)CCN(Cc1ccc(-c2ccc(Br)cc2)cc1)C(=O)Cn1c(CCc2cccc(F)c2F)nc(=O)c2ccccc21`, the IC50 amounted to 790 nM. This IC50 lies about 1.6-fold lower than the previous one. Then `Cc1ccc(Nc2nc(C)cc(N3CCN(c4ccccc4)CC3)n2)cc1`, with 1530 nM; and `CC(C)N(CCOc1ccc2c(c1)N(C(=O)Nc1cc(Br)cc(C(F)(F)F)c1)CC2)C(C)C`, with 110 nM; and `COc1ccc(C2C(C(=O)Nc3ccc4c(c3)OCO4)c3cc(OC)c(OC)cc3C(=O)N2C)cc1` (centres undefined), with 1040 nM. In the case of `COc1ccc(CC(=O)Nc2ccc(Nc3nc(C)cc(N(C)C)n3)cc2)cc1` it was 790 nM; in that of `Cc1nc(-c2nc(N3CCOCC3)ncc2-c2ccsc2)sc1C`, 320 nM; in that of `O=C(Cc1ccccc1)NC(CCN1CCC(O)(c2cccc(C(F)(F)F)c2)CC1)c1ccc(Cl)c(Cl)c1` (centres undefined), 860 nM.

On to `COC[C@H]1CCCN1Cc1ccc(-c2ccc(-c3nc4ccccc4[nH]3)s2)cc1`, for which the IC50 is 1000 nM. This IC50 and that of the molecule before are within 1.5-fold of each other.

Turning to `O=C(NCCCNc1nc2ccccc2[nH]1)c1cccc(OC(F)(F)F)c1`, the IC50 turned out to be 570 nM. Consider `CN(c1ccc(F)cc1)S(=O)(=O)c1ccc(Cl)c(C(=O)Nc2cccc(C#N)c2)c1`, for which the half-maximal inhibitory concentration (IC50) is 700 nM.

`O=C(/C=C/c1ccc(Cl)c(Cl)c1)N1CCC(NCc2c[nH]c3ccccc23)CC1` had an IC50 of 1070 nM. Then `Cc1ccc(Cn2ncc(N3CCCNCC3)c(Cl)c2=O)cc1NC(=O)Nc1ccc(-c2ccccc2)cc1`, with 630 nM; and `Cc1cc(F)ccc1[C@H]1CNCCN1C(=O)N(C)C(C)(C)c1cc(C(F)(F)F)cc(C(F)(F)F)c1`, with 590 nM; and `CC1CC(C)CN(CCCNc2ccc(C(=O)Nc3ccc(C(F)(F)F)cc3)cc2[N+](=O)[O-])C1` (centres undefined), with 200 nM. Regarding `O=C(CCc1cnc[nH]1)Nc1cccc(-c2ccc(-c3nc4ccc(F)cc4[nH]3)s2)c1`, the IC50 came out at 560 nM. For the molecule `COc1ccc(NC(=O)c2csc(-c3cc(NC(=O)c4ccnc(N5CCCC5)c4)ccc3C)c2)cc1N1CCN(C)CC1`, the IC50 was 660 nM.

For the molecule `Cc1cccc2[nH]c(-c3cccc(-c4cccc(NC(=O)CN5CCN(C)CC5)c4)c3)nc12`, the IC50 was determined as 530 nM. Then `Cc1ccc(C=C2SC(=Nc3ccccc3)NC2=O)c(C)c1`, with 560 nM. Then `COc1cccc(CCNc2nc(NCc3ccccc3)c3cc(OC)c(OC)cc3n2)c1`, with 320 nM; and `COc1ccc(CC(=O)NC(CCCN2CCC3(CC2)OCc2ccccc23)c2ccc(Cl)c(Cl)c2)cc1` (centres undefined), with 1130 nM. Take `Cn1nccc1C(=O)NCCNCc1cccc(-c2cccc(-c3nc4ccc(C(F)(F)F)cc4[nH]3)c2)c1`: the IC50 came to 170 nM.

In turn, `O=C(NCc1cccc2ccccc12)C(c1cc2ccccc2o1)N1CCN(C(c2ccccc2)c2ccccc2)CC1` (centres undefined) showed an IC50 of 670 nM. In the case of `O=C(N[C@@H](Cc1ccccc1)C(=O)NCCN1CCCCC1)c1ccc(O)c(-c2cccc(C(F)(F)F)c2)c1` it was 850 nM; in that of `CCOC(=O)c1cc(C(=O)NCCCCN2CCC(c3ccc4c(c3OC)CCCC4)CC2)ccc1-c1ccc(C(F)(F)F)cc1`, 710 nM; in that of `CC1CCNc2ccc(Cc3cnc(N)nc3N)cc21` (centres undefined), 1040 nM. Molecule `COc1cccc(C(NC(=O)c2ccccc2)c2ccc3cccnc3c2O)c1` (centres undefined) displayed an IC50 of 1080 nM.

Turning to `CCCCN(CCCC)C(=NCCCCCCN=C(/N=C(/N)Nc1ccc(Cl)cc1)N(CCCC)CCCC)/N=C(/N)Nc1ccc(Cl)cc1`, the IC50 was 790 nM.

Turning to `c1csc(-c2ccc3c(c2)CC(NCc2c[nH]c4cnccc24)C3)c1` (centres undefined), the IC50 is 740 nM. This IC50 and that of the molecule before are within 1.5-fold of each other. For `Cc1ccc(C2CCN(CCCCNC(=O)c3ccc(-c4ccc(C#N)cc4)cc3)CC2)c(O)c1`, the IC50 came out at 290 nM. The molecule `CC1CCN(CCCNc2ccc(C(=O)Nc3ccc(C(F)(F)F)cc3)cc2[N+](=O)[O-])CC1` yielded an IC50 of 340 nM. `Cc1sc2ccc(Cl)cc2c1S(=O)(=O)Nc1ccc2nccc(N3C[C@@H](C)N[C@@H](C)C3)c2c1` showed an IC50 of 110 nM. On to `CCOC(=O)c1c(CN2CCN(C)CC2)n(Cc2ccccc2)c2cc(Br)c(O)cc12`, for which the IC50 was determined as 590 nM. The molecule `CCOc1cccc(C2c3c(oc4ccccc4c3=O)C(=O)N2CCN(CC)CC)c1` (centres undefined) displayed an IC50 of 750 nM.

For the molecule `COc1ccc(CCNC(=O)c2ccccc2O)cc1-c1ccc(C(C)(C)C)cc1`, the IC50 was 560 nM. This IC50 and that of the molecule before are within 1.5-fold of each other.

Consider `Nc1nc2ccc(S(=O)(=O)Nc3ccc(C(=O)N[C@@H](CCC(=O)O)C(=O)O)c(F)c3)cc2c(=O)[nH]1`, for which the IC50 is 820 nM. In the case of `Clc1ccc(-c2nc3ccc(-c4ccc5nc(-c6ccc(Cl)cc6)[nH]c5c4)cc3[nH]2)cc1` it was 240 nM; in that of `O=[N+]([O-])c1ccc(C(O)CNCCc2ccccc2)cc1OCc1ccccc1` (centres undefined), 910 nM; in that of `COc1ccc(C(=O)N2CCC(CN3CCOC(c4ccccc4)(c4ccccc4)C3)CC2)cc1`, 170 nM. Then `ON=C1CCc2cc(-c3nc(-c4cccc(OCCNCc5ccc(F)cc5)c4)[nH]c3-c3ccncc3)ccc21`, with 890 nM; and `COc1ccc(CNCc2ccc(-c3ccc(-c4nc5ccc(C(F)(F)F)cc5[nH]4)s3)cc2)cc1`, with 170 nM. In the case of `Cc1cccc2[nH]c(-c3ccc(-c4cccc(CN5CCCC(O)C5)c4)s3)nc12` (centres undefined) it was 940 nM; in that of `Cn1ccc(C(=O)Nc2ccc3c(c2)CN(Cc2ccc(N4CCCC4)o2)CCC3)n1`, 1310 nM. Take `Cc1cc(CNC(=O)c2ccc(-c3ccc(-c4nc5ccc(C(F)(F)F)cc5[nH]4)s3)cc2)on1`: the IC50 is 730 nM. Then `N#Cc1ccccc1C(=O)N(Cc1cncn1Cc1cccc(F)c1)CC1CC1`, with 730 nM. Then `Oc1ccc2[nH]c(-c3cccs3)nc2c1CN1CCC(N2CCCC2)CC1`, with 640 nM; and `O=[N+]([O-])c1cccc(CNC2CCN(Cc3ccc(C(F)(F)F)cc3)CC2)c1`, with 740 nM; and `CN1C(=O)OC[C@@H]1Cc1ccc2[nH]cc(C3=CCN(Cc4ccccc4)CC3)c2c1`, with 420 nM. In the case of `O=C(Nc1ccc(-c2cccc(-c3nc4ccc(F)cc4[nH]3)c2)cc1)Nc1ccc(F)c(F)c1F` it was 740 nM; in that of `COc1ccc2nccc(N(C)CC3(O)CCN(CC(O)c4ccc5c(c4)NC(=O)CS5)CC3)c2n1` (centres undefined), 590 nM. In the case of `COc1ccc(NC(=O)[C@H](CC(C)C)Nc2cc(C)nc(NCC3CCCCC3)n2)cc1`, the IC50 worked out at 1100 nM.
